According to patent publication US11891385B1, “1-cyclopropyl-7-(4-((5-(3,5-dichlorobenzylideneamino)-2-thioxo-1,3,4-thiadiazol-3(2H)-yl)methyl)piperazin-1-yl)-6-fluoro-4-oxo-1,4-dihydroquinoline-3-carboxylic aci d as an anti-inflammatory compound” (KING FAISAL UNIVERSITY, priority 2023, dated 2024):
Like-named read-outs stand apart in the source and are kept apart here.

Target: Bovine serum albumin (Bos taurus, UniProt P02769)
Assay: Bovine Serum Albumin (BSA) assay, in-vitro protein denaturation
Format: biochemical
Conditions: for inhibition at 20 µg/mL / inhibition at 40 µg/mL / inhibition at 60 µg/mL / inhibition at 80 µg/mL / inhibition at 100 µg/mL: 72° C. for 10 minutes, turbidity at 660 nm
Protocol: Bovine Serum Albumin Assay (BSA) In vitro-inflammatory activities of the tested samples were determined using a modified method of the BSA assay reported by Williams et al. BSA solution (0.4%, w/v) was prepared in Tris Buffered Saline. The pH was adjusted to 6.4 with glacial acetic acid. Different dilutions of 20, 40, 60, 80, and 100 μg/mL of 1-cyclopropyl-7-(4-((5-(3,5-dichlorobenzylideneamino)-2-thioxo-1,3,4-thiadiazol-3(2H)-yl)methyl)piperazin-1-yl)-6-fluoro-4-oxo-1,4-dihydroquinoline-3-carboxylic acid (IV) and the stock solutions were added to test tubes containing 1 mL of 0.4%, w/v BSA buffer solution. Both negative (solvent) and positive (aspirin) controls were assayed in a similar manner. The solutions were then heated in a water bath at 72° C. for 10 minutes, and cooled for 20 minutes under laboratory conditions. The turbidity of the solutions (level of protein precipitation) was measured at 660 nm in Spectrophotometer (V-770 UV-Visible/NIR Spectrophotometer). The percentage inhibition of precipitation (protein denaturation) was determined relative to the negative control using the following equation: [formula] [formula] Anti-Inflammatory Activity

Sequence of Bovine serum albumin (P02769 25-607): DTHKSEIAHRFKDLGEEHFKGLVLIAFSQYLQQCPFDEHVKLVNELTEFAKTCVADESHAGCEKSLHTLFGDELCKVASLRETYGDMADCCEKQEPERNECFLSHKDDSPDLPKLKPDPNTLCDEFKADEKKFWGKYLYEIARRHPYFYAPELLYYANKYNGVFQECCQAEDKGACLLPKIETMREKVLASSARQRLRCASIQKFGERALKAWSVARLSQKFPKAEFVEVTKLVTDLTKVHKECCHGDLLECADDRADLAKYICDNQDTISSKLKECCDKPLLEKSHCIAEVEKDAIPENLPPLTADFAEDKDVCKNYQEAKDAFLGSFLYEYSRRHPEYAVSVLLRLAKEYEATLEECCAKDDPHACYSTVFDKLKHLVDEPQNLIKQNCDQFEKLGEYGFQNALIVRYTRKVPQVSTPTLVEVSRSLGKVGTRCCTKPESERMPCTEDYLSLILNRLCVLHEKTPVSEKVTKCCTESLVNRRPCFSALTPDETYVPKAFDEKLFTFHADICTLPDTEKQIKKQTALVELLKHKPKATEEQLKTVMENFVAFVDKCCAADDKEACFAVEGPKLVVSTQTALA

| in vitro anti-inflammatory activity (result in words) (BSA protein denaturation) | % Inhibition of protein denaturation (Bovine serum albumin) (bovine, 10 min, 100 μg/mL, pH 6.4) | inhibition at 20 µg/mL (read-out: % Inhibition of protein denaturation (Bovine serum albumin), concentration 20 μg/ml) | inhibition at 40 µg/mL (read-out: % Inhibition of protein denaturation (Bovine serum albumin), concentration 40 μg/ml) | inhibition at 60 µg/mL (read-out: % Inhibition of protein denaturation (Bovine serum albumin), concentration 60 μg/ml) | inhibition at 80 µg/mL (read-out: % Inhibition of protein denaturation (Bovine serum albumin), concentration 80 μg/ml) | inhibition at 100 µg/mL (read-out: % Inhibition of protein denaturation (Bovine serum albumin), concentration 100 μg/ml) | inhibition at 20 µg/mL (concentration 20 μg/ml, read-out: % Inhibition of protein denaturation (Bovine serum albumin)) | inhibition at 40 µg/mL (concentration 40 μg/ml, read-out: % Inhibition of protein denaturation (Bovine serum albumin)) | inhibition at 60 µg/mL (concentration 60 μg/ml, read-out: % Inhibition of protein denaturation (Bovine serum albumin)) | inhibition at 80 µg/mL (concentration 80 μg/ml, read-out: % Inhibition of protein denaturation (Bovine serum albumin)) | inhibition at 100 µg/mL (concentration 100 μg/ml, read-out: % Inhibition of protein denaturation (Bovine serum albumin)) | Structure (SMILES) |
| --- | --- | --- | --- | --- | --- | --- | --- | --- | --- | --- | --- | --- |
| considerable anti-inflammatory effect | 83.77% | 58% | 68.7% | 73.2% | 80% | 87.6% | – | – | – | – | – | O=C(O)c1cn(C2CC2)c2cc(N3CCN(Cn4nc(/N=C/c5cc(Cl)cc(Cl)c5)sc4=S)CC3)c(F)cc2c1=O [IV, 1-cyclopropyl-7-(4-((5-(3,5-dichlorobenzylideneamino)-2-thioxo-1,3,4-thiadiazol-3(2H)-yl)methyl)piperazin-1-yl)-6-fluoro-4-oxo-1,4-dihydroquinoline-3-carboxylic acid] |
| – | – | – | – | – | – | – | 71% | 77.5% | 82.6% | 85.5% | 90.8% | CC(=O)Oc1ccccc1C(=O)O [aspirin, reference compound] |
